Source: US20240246964A1 (Arbutus Biopharma Corporation, priority 2021, published 2024)

These compounds were tested against human PD-L1 (Homo sapiens (Human), UniProt Q9NZQ7) (assay: T cell activation luciferase reporter cell culture system (T Cell Activation Assay)). Details: luciferase reporter assay; PD-L1 aAPC/CHO-K1 cells with PD-1 effector Jurkat T cells.
Type: cell-based

human PD-L1, sequence (Q9NZQ7 19-290): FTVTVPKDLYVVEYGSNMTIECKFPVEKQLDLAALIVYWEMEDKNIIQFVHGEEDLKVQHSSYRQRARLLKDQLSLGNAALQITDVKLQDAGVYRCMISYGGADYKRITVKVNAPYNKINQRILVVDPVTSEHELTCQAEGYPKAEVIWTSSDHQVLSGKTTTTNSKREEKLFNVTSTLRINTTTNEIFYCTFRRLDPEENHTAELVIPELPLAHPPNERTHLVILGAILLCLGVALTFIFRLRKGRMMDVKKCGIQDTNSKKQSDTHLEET

Row | SMILES | EC50
1 | CNCc1ccc(C(=O)Nc2cccc(-c3ccnc(-c4ccc(CNC)c(OC)c4)c3Cl)c2Cl)nc1 [Example 694, N-(2-chloro-3-(3-chloro-2-(3-methoxy-4-((methylamino)methyl)phenyl)pyridine-4-yl)phenyl)-5-((methylamino)methyl)picolinamide] | 69.7 nM
2 | COc1cc(-c2nccc(-c3cccc(-c4ccc(CN5CCC(O)CC5)c(OC)n4)c3Cl)c2Cl)ccc1CN1CCC(O)CC1 [Example 412, 1-((6-(2-Chloro-3-(3-chloro-2-(4-((4-hydroxypiperidin-1-yl)methyl)-3-methoxyphenyl)pyridin-4-yl)phenyl)-2-methoxypyridin-3-yl)methyl)piperidin-4-ol] | 15.7 nM
3 | COc1nc(-c2cccc(-c3ccnc(-c4ccc(CN5CC6(C5)CN(C(C)=O)C6)c(OC(F)F)c4)c3Cl)c2Cl)ccc1CNC1CCOCC1 [Example 663, 1-(6-(4-(3-Chloro-4-(2-chloro-3-(6-methoxy-5-(((tetrahydro-2H-pyran-4-yl)amino)methyl)pyridin-2-yl)phenyl)pyridin-2-yl)-2-(difluoromethoxy)benzyl)-2,6-diazaspiro[3.3]heptan-2-yl)ethan-1-one] | 39.9 nM
4 | COc1nc(-c2cccc(-c3ccnc(-c4cc(OC)c5nc(CN6CC7(CNC(=O)C7)C6)nn5c4)c3Cl)c2Cl)ccc1CNC1CCN(C(C)=O)CC1 [Example 659, 2-((6-(4-(3-(5-(((1-Acetylpiperidin-4-yl)amino)methyl)-6-methoxypyridin-2-yl)-2-chlorophenyl)-3-chloropyridin-2-yl)-8-methoxy-[1,2,4]triazolo[1,5-a]pyridin-2-yl)methyl)-2,6-diazaspiro[3.4]octan-7-one] | 82.2 nM
5 | COc1cc(-c2nccc(-c3cccc(-c4ccc(CN5CC6(C5)CN(C(C)=O)C6)c(OC)n4)c3Cl)c2Cl)ccc1CNC1CCOCC1 [Example 511, 1-(6-((6-(2-Chloro-3-(3-chloro-2-(3-methoxy-4-(((tetrahydro-2H-pyran-4-yl)amino)methyl)phenyl)pyridin-4-yl)phenyl)-2-methoxypyridin-3-yl)methyl)-2,6-diazaspiro[3.3]heptan-2-yl)ethan-1-one] | 20.7 nM
6 | COc1cc(-c2nccc(-c3cccc(-c4ccc(CN5CC6(CNC(=O)C6)C5)c(OC)n4)c3Cl)c2Cl)ccc1CN[C@H]1CC[C@@H](O)CC1 [Example 503, 2-((6-(2-Chloro-3-(3-chloro-2-(4-((((1s,4s)-4-hydroxycyclohexyl)-amino)-methyl)-3-methoxyphenyl)pyridin-4-yl)phenyl)-2-methoxypyridin-3-yl)methyl)-2,6-diazaspiro[3.4]octan-7-one] | 36.2 nM
7 | COc1cc(-c2nccc(-c3cccc(-c4ccc(CNC5CCN(C(C)=O)CC5)c(OC)n4)c3C)c2C)ccc1CNC1CCN(C(C)=O)CC1 [Example 363, 1-(4-(((6-(3-(2-(4-(((1-Acetylpiperidin-4-yl)amino)methyl)-3-methoxyphenyl)-3-methylpyridin-4-yl)-2-methylphenyl)-2-methoxypyridin-3-yl)methyl)amino)piperidin-1-yl)ethan-1-one] | 400 nM
8 | COc1cc(-c2nccc(-c3cccc4c3CCC[C@@H]4Nc3nc(OC)c(CNC4(C(=O)O)CC4)cc3C(F)(F)F)c2Cl)ccc1CNC[C@@H]1CCC(=O)N1 [Example 705, 1-(((6-(((S)-5-(3-Chloro-2-(3-methoxy-4-(((((S)-5-oxopyrrolidin-2-yl)methyl)amino)methyl)phenyl)pyridin-4-yl)-1,2,3,4-tetrahydronaphthalen-1-yl)amino)-2-methoxy-5-(trifluoromethyl)pyridin-3-yl)methyl)amino)cyclopropane-1-carboxylic acid] | ≥ 10000 nM
9 | COc1cc(-c2nccc(-c3cccc(-c4ccc(CNC5CCN(C(C)=O)CC5)c(OC)n4)c3Cl)c2Cl)ccc1CN1CC2(CNC(=O)C2)C1 [Example 244, 2-(4-(4-(3-(5-(((1-acetylpiperidin-4-yl)amino)methyl)-6-methoxypyridin-2-yl)-2-chlorophenyl)-3-chloropyridin-2-yl)-2-methoxybenzyl)-2,6-diazaspiro[3.4]octan-7-one] | 25.2 nM
10 | COc1cc(-c2nccc(-c3cccc(-c4ccc(CN5CC6(CC(O)C6)C5)c(OC)n4)c3Cl)c2Cl)ccc1CN1CC2(CNC(=O)C2)C1 [Example 521, 2-(4-(3-Chloro-4-(2-chloro-3-(5-((6-hydroxy-2-azaspiro[3.3]heptan-2-yl)methyl)-6-methoxypyridin-2-yl)phenyl)pyridin-2-yl)-2-methoxybenzyl)-2,6-diazaspiro[3.4]octan-7-one] | 8.63 nM
11 | COc1nc(-c2cccc(-c3ccnc(-c4cc5c(OC)nc(CNCCO)nn5c4)c3Cl)c2Cl)ccc1CNC1CCN(C(C)=O)CC1 [Example 661, 1-(4-(((6-(2-Chloro-3-(3-chloro-2-(2-(((2-hydroxyethyl)amino)methyl)-4-methoxypyrrolo[2,1-f][1,2,4]triazin-6-yl)pyridin-4-yl)phenyl)-2-methoxypyridin-3-yl)methyl)amino)piperidin-1-yl)ethan-1-one] | 820 nM
12 | COc1nc(-c2cccc(-c3ccnc(-c4cc(Cl)c5c(c4)CCN(CCCF)C5)c3Cl)c2Cl)ccc1CNC[C@@H]1CCC(=O)N1 [Cmpd 72, (S)-5-((((6-(2-chloro-3-(3-chloro-2-(8-chloro-2-(3-fluoropropyl)-1,2,3,4-tetrahydroisoquinolin-6-yl)pyridin-4-yl)phenyl)-2-methoxypyridin-3-yl)methyl)amino)methyl)pyrrolidin-2-one] | 392 nM
13 | COc1cc(-c2nccc(-c3cccc(-c4ccc(CNC[C@@H]5CCC(=O)N5)c(OC)n4)c3Cl)c2Cl)ccc1CNC[C@@H]1CCO1 [Cmpd 122, (S)-5-((((6-(2-chloro-3-(3-chloro-2-(3-methoxy-4-(((((S)-oxetan-2-yl)methyl)amino)methyl)phenyl)pyridin-4-yl)phenyl)-2-methoxypyridin-3-yl)methyl)amino)methyl)pyrrolidin-2-one] | 55.7 nM
14 | COc1nc(-c2cccc(-c3ccnc(-c4cc(OC)c5nc(CN(C)CCO)nn5c4)c3Cl)c2Cl)ccc1CNC1CCN(C(C)=O)CC1 [Example 715, 1-(4-(((6-(2-Chloro-3-(3-chloro-2-(2-(((2-hydroxyethyl)(methyl)amino)methyl)-8-methoxy-[1,2,4]triazolo[1,5-a]pyridin-6-yl)pyridin-4-yl)phenyl)-2-methoxypyridin-3-yl)methyl)amino)piperidin-1-yl)ethan-1-one] | 581 nM
15 | COc1nc(-c2cccc(-c3ccnc(-c4cc(OC)c5nc(CNCCO)nn5c4)c3Cl)c2Cl)ccc1CNC1CCN(C(C)=O)CC1 [Example 654, 1-(4-(((6-(2-Chloro-3-(3-chloro-2-(2-(((2-hydroxyethyl)amino)methyl)-8-methoxy-[1,2,4]triazolo[1,5-a]pyridin-6-yl)pyridin-4-yl)phenyl)-2-methoxypyridin-3-yl)methyl)amino)piperidin-1-yl)ethan-1-one] | 82.8 nM
16 | COc1cc(-c2nccc(-c3cccc(NC(=O)c4ccc(C(=O)O)cn4)c3Cl)c2Cl)ccc1CNC[C@@H]1CCC(=O)N1 [Example 752, (S)-6-((2-Chloro-3-(3-chloro-2-(3-methoxy-4-((((5-oxopyrrolidin-2-yl)methyl)amino)methyl)phenyl)pyridin-4-yl)phenyl)carbamoyl)nicotinic acid] | 1030 nM
17 | COc1cc(-c2nccc(-c3cccc(-c4ccc(CN5CCC(O)CC5)c(OC)n4)c3Cl)c2Cl)ccc1CNC1CCN(C(C)=O)CC1 [Example 487, 1-(4-((4-(3-Chloro-4-(2-chloro-3-(5-((4-hydroxypiperidin-1-yl)methyl)-6-methoxypyridin-2-yl)phenyl)pyridin-2-yl)-2-methoxybenzyl)amino)piperidin-1-yl)ethan-1-one] | 39.9 nM
18 | COc1cc(-c2nccc(-c3cccc(-c4ccc([C@H](C)N)c(OC)n4)c3Cl)c2Cl)ccc1[C@H](C)N [Example 393, (S)-1-(6-(3-(2-(4-((S)-1-Aminoethyl)-3-methoxyphenyl)-3-chloropyridin-4-yl)-2-chlorophenyl)-2-methoxypyridin-3-yl)ethan-1-amine] | 416 nM
19 | COc1cc(-c2nccc(-c3cccc(-c4ccc(CN5CCC(OC)CC5)c(OC)n4)c3Cl)c2Cl)ccc1CN1CCC(OC)CC1 [Example 447, 3-Chloro-4-(2-chloro-3-(6-methoxy-5-((4-methoxypiperidin-1-yl)methyl)pyridin-2-yl)phenyl)-2-(3-methoxy-4-((4-methoxypiperidin-1-yl)methyl)phenyl)pyridine] | 61.3 nM
20 | COc1cc(-c2nccc(-c3cccc(-c4ccc(CN5CC6(CCNC6=O)C5)c(OC)n4)c3Cl)c2Cl)ccc1CNC1CCN(C(C)=O)CC1 [Example 525, 2-((6-(3-(2-(4-(((1-Acetylpiperidin-4-yl)amino)methyl)-3-methoxyphenyl)-3-chloropyridin-4-yl)-2-chlorophenyl)-2-methoxypyridin-3-yl)methyl)-2,6-diazaspiro[3.4] octan-5-one] | 56.7 nM
21 | COc1cc(-c2nccc(-c3cccc(-c4ccc5c(OC)c(CNC[C@@H]6CCC(=O)N6)cc(Cl)c5n4)c3Cl)c2Cl)cc(F)c1CNC[C@@H]1CCC(=O)N1 [Example 236, (S)-5-((((8-Chloro-2-(2-chloro-3-(3-chloro-2-(3-fluoro-5-methoxy-4-(((((S)-5-oxopyrrolidin-2-yl)methyl)amino)methyl)phenyl)pyridin-4-yl)phenyl)-5-methoxyquinolin-6-yl)methyl)amino)methyl)pyrrolidin-2-one] | 53.9 nM
22 | COc1nc(-c2ccnc(-c3cccc4c3CC[C@@H]4Nc3nc(OC)c(CNC[C@@H]4CCC(=O)N4)cc3C(F)(F)F)c2Cl)ccc1CNC1CCN(C(C)=O)CC1 [Example 486, (S)-5-((((6-(((S)-4-(5-(((1-Acetylpiperidin-4-yl)amino)methyl)-3′-chloro-6-methoxy-[2,4′-bipyridin]-2′-yl)-2,3-dihydro-1H-inden-1-yl)amino)-2-methoxy-5-(trifluoromethyl)pyridin-3-yl)methyl)amino)methyl)pyrrolidin-2-one] | 114 nM
